Our source for the Activity and inhibition values is ChEMBL document CHEMBL1156526, “Specificity and mechanism of action of EHT 1864, a novel small molecule inhibitor of Rac family small GTPases” (2007).

Assay [1] relates to NIH3T3. The assay can be described thus: Inhibition of Rac1 61L mutant-induced cellular transformation in mouse NIH3T3 cells at 5 uM after 3 to 5 weeks. Type of assay: cell-based.
In assay [2] the test system is U-87 MG. The assay can be described thus: Reduction of Cdc42-GTPase level in platelet derived growth factor-induced human U87MG cells measured with GST-PAK-RBD by pulldown assay. Type of assay: functional, cell-based. The note with it: U-87MG ATCC.
Assay [3] relates to U-87 MG. The experiment in a line: Reduction of Rac1-GTPase level in platelet derived growth factor-induced human U87MG cells measured with GST-rhotekin-RBD by pulldown assay. The assay is classed as functional, cell-based. The following applies: U-87MG ATCC.
Assay [4] concerns U-87 MG. The experiment in a line: Reduction of RhoA-GTPase level in platelet derived growth factor-induced human U87MG cells measured with GST-rhotekin-RBD by pulldown assay. Type of assay: functional, cell-based. The note with it: U-87MG ATCC.
In assay [5] the test system is U-87 MG. The experiment in a line: Reduction of RhoA-GTPase level in platelet derived growth factor-induced human U87MG cells measured with GST-PAK-RBD by pulldown assay. Type of assay: functional, cell-based. The following applies: U-87MG ATCC.
The test system of assay [6] is U-87 MG. The experiment in a line: Reduction of Rac1-GTPase level in platelet derived growth factor-induced human U87MG cells measured with GST-PAK-RBD by pulldown assay. The assay is classed as functional, cell-based. The following applies: U-87MG ATCC.
Assay [7] concerns U-87 MG. The experiment in a line: Reduction of Cdc42-GTPase level in platelet derived growth factor-induced human U87MG cells measured with GST-rhotekin-RBD by pulldown assay. The assay is classed as functional, cell-based. The note with it: U-87MG ATCC.
For assay [8], the system named is NIH3T3. The assay can be described thus: Inhibition of lysophosphatidic acid-induced actin stress fibers formation in mouse NIH3T3 cells at 5 uM. Type of assay: functional, cell-based.
Assay [9] relates to NIH3T3. The experiment in a line: Inhibition of platelet derived growth factor-induced lamellipodia formation in mouse NIH3T3 cells at 5 uM. Type of assay: functional.
Assay [10] relates to NIH3T3. The experiment in a line: Inhibition on Rac1 61L-induced focus forming activity in mouse NIH3T3 cells at 5 uM. The assay is classed as cell-based.
Assay [11] deals with NIH3T3. The experiment in a line: Inhibition on Rac1 61L […]-induced focus forming activity in mouse NIH3T3 cells at 5 uM. The assay is classed as cell-based.
Assay [12] has as its system NIH3T3. The assay can be described thus: Effect on interaction between Rac1 15A mutant and human Tiam1 C1199 mutant expressed in NIH3T3 cells by Western blot analysis. The assay is classed as cell-based.
The target of assay [13] is Ras-related C3 botulinum toxin substrate 2 (Homo sapiens) (UniProt P15153). The assay can be described thus: Binding affinity at Rac2 at 1 uM by fluorescence anisotropy.
Assay [14] has as its system NIH3T3. The experiment in a line: Inhibition of bradykinin-induced filopodia formation in mouse NIH3T3 cells at 5 uM. The assay is classed as functional, cell-based.
The target of assay [15] is Cell division control protein 42 homolog (Homo sapiens) (UniProt P60953). The experiment in a line: Inhibition of platelet derived growth factor-induced endogenous association of Cdc42 with GST-PAK-RBD in human U87MG cells after 5 mins by Western blot analysis. The assay is classed as cell-based. The note with it: U-87MG ATCC.
Sequence of Cell division control protein 42 homolog (Homo sapiens) (P60953 whole entry, looked up): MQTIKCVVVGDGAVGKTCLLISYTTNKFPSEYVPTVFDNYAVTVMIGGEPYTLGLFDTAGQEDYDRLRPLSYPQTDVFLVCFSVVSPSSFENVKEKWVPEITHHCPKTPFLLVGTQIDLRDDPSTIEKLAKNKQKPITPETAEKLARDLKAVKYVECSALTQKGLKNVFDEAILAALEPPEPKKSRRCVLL
The subject of assay [16] is 293T. The assay can be described thus: Effect on interaction between Rac1 15A mutant and human Tiam1 C1199 mutant expressed in 293T cells by Western blot analysis. Type of assay: cell-based.
Assay [17] has as its target Cell division control protein 42 homolog (Homo sapiens) (UniProt P60953). The assay can be described thus: Binding affinity at Cdc42 at 1 uM by fluorescence anisotropy.
The test system of assay [18] is NIH3T3. The experiment in a line: Inhibition of Ras-induced cell growth in H-Ras 61L expressing mouse NIH3T3 cells at 5 uM by MTT assay. Type of assay: cell-based.
The target in assay [19] is Ras-related C3 botulinum toxin substrate 3 (Homo sapiens) (UniProt P60763). The experiment in a line: Binding affinity at Rac3 at 1 uM by fluorescence anisotropy.
Assay [20] has as its system NIH3T3. The assay can be described thus: Inhibition of H-Ras 61L mutant-induced focus formation in mouse NIH3T3 cells at 5 uM after 14 days. The assay is classed as cell-based.
The target of assay [21] is Ras-related C3 botulinum toxin substrate 1 (Mus musculus) (UniProt P63001). The assay can be described thus: Effect on Rac1 binding to RhoGDI2 in mouse NIH3T3 cells by Western blot analysis. The assay is classed as cell-based.
Assay [22] concerns NIH3T3. The assay can be described thus: Inhibition on Tiam1 C1199 mutant-induced focus forming activity in mouse NIH3T3 cells at 5 uM. Type of assay: cell-based.
Assay [23] has as its target Cell division control protein 42 homolog (Homo sapiens) (UniProt P60953). The assay can be described thus: Inhibition of Cdc42-PAK-RBD complex formation in platelet derived growth factor-induced human U87MG cells at 50 uM by fluorescence anisotropy. The note with it: U-87MG ATCC. The assay is classed as cell-based.
In assay [24] the target is Ras-related C3 botulinum toxin substrate 1 (Mus musculus) (UniProt P63001). The assay can be described thus: Effect on Rac1 binding to RhoGDI1 in mouse NIH3T3 cells by Western blot analysis. The assay is classed as cell-based.

Each structure is given as a SMILES string. The source made the active and inactive calls. No cut-off for these calls is given here.

As for `CCN(CC)CCCC(C)Nc1nc(C)cc(Nc2ccc3nc(C)cc(N)c3c2)n1` (stereo unspecified), in [1], the result was inactive.
As to `O=c1cc(CN2CCNCC2)occ1OCCCCCSc1ccnc2cc(C(F)(F)F)ccc12`, the result in [2], in assay [3], in assay [4], in [5], in assay [6] and in assay [7] was inactive.
For the molecule `O=c1cc(CN2CCOCC2)occ1OCCCCCSc1ccnc2cc(C(F)(F)F)ccc12`, the outcome in [8], in assay [1], in assay [4], in assay [13], in assay [14] and in assay [18] was Active. Moreover, the result in assay [19], in assay [21], in assay [22] and in assay [24] was Active. The same molecule returned an inhibition at 5 µM in assay [9] of 80%. Also, the inhibition in assay [10] stood at 80%. Also, the result in assay [11], in assay [12], in [15], in [16], in assay [17] and in assay [20] was inactive. For the same molecule, the result in assay [23] was inactive.
